We go through 22 compounds from patent US9938258B2 (Karyopharm Therapeutics Inc., priority 2012, dated 2018).

Structures are written as SMILES. pIC50: −log10 of the molar value. Read-outs that look alike come from different tables or passages of the source.

One assay deals with MS751 cells. As to the kind of experiment: MTT cell proliferation assay, MS751. It counts as cell-based, human. The following applies: read-out: MTT Assay IC50, MS751. In outline: (§1)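 Cells were seeded at 5,000-10,000 per well, left to attach overnight, then exposed to eight compound concentrations from 1 nM to 30 μM. After about 4 h with MTT, solubilized formazan was read at 490 nm and percent inhibition versus negative control was calculated.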
On the technique in general: Tetrazolium assays rely on reduction of a dye to a coloured formazan, in cell work by metabolically active cells.

The subject of another assay is 3T3 cells. As to the kind of experiment: MTT cell proliferation assay, 3T3. Format: cell-based, mouse. The following applies: read-out: MTT Assay IC50, 3T3. The procedure, abridged:
as §1

A further assay deals with Z138 cells. In words: MTT cell proliferation assay, Z138. It counts as cell-based. The settings on record: read-out: MTT Assay IC50, Z138. The procedure, abridged:
as §1

The mark [1] stands for this setting: Homo sapiens, MS751, MS751 cells, approximately 64-72 hours incubation.
The mark [2] stands for this setting: Mus musculus, NIH3T3, 3T3 cells, approximately 64-72 hours incubation.
Setting [3] is: Homo sapiens, Z-138, Z138 cells, approximately 64-72 hours incubation.
Setting [4] is: MS751 cells, approximately 64-72 hours incubation.
[5] abbreviates: 3T3 cells, approximately 64-72 hours incubation.
[6] abbreviates: Homo sapiens, MS751, MS751 cells, eight concentrations 1 nM to 30 μM, incubation approximately 64-72 hours.
[7] abbreviates: Mus musculus, NIH3T3, 3T3 cells, eight concentrations 1 nM to 30 μM, incubation approximately 64-72 hours.
Where [8] appears, read: Homo sapiens, Z-138, Z138 cells, eight concentrations 1 nM to 30 μM, incubation approximately 64-72 hours.

Regarding `CC1(F)CN(C(=O)c2ccc(-c3cc(Cl)c4c(c3)CC(/C=C/C(=O)NCc3ccc(N)nc3)O4)cc2)C1` (stereo not drawn) [Compound 366, (E)-N-((6-aminopyridin-3-yl)methyl)-3-(7-chloro-5-(4-(3-fluoro-3-methylazetidine-1-carbonyl)phenyl)-2,3-dihydrobenzofuran-2-yl)acrylamide], the pIC50 in the assay with MS751 cells (setting [1]) was under 4.52; in the assay with 3T3 cells (setting [2]), 5.30 to 7.00; in the assay with Z138 cells (setting [3]) it was under 4.52.
Regarding `CC(=O)c1ccc(-c2cc(Cl)c3c(c2)CC(CNC(=O)/C=C\c2cccnc2)O3)s1` (single isomer, unassigned) [Compound 312, (Z)-N-((5-(5-acetylthiophen-2-yl)-7-chloro-2,3-dihydrobenzofuran-2-yl)methyl)-3-(pyridin-3-yl)acrylamide], the values for the pIC50 with MS751 cells (setting [4]), in the assay on 3T3 cells (setting [5]) and in the assay on Z138 cells (setting [3]) were 4.52 to 5.30, 4.52 to 5.30 and 5.30 to 7.00, respectively.
`CC(=O)c1ccc(-c2cc(Cl)c3c(c2)CC(CNC(=O)/C=C/c2nccn2C)O3)s1` (stereo not drawn) [Compound 164, (E)-N-((5-(5-acetylthiophen-2-yl)-7-chloro-2,3-dihydrobenzofuran-2-yl)methyl)-3-(1-methyl-1H-imidazol-2-yl)acrylamide]: the negative-log IC50 (pIC50) in the assay on MS751 cells (setting [6]), with 3T3 cells (setting [7]) and in the assay with Z138 cells (setting [8]) was under 4.52 each time.
On to `O=C(/C=C/c1cccnc1)NCC1Cc2cc(-c3ccc(Cl)cc3F)cc(Cl)c2O1` (stereo not drawn) [Compound 55, (E)-N-((7-chloro-5-(4-chloro-2-fluorophenyl)-2,3-dihydrobenzofuran-2-yl)methyl)-3-(pyridin-3-yl)acrylamide], for which the negative-log IC50 (pIC50) was 5.30 to 7.00 with MS751 cells (setting [6]), under 4.52 with 3T3 cells (setting [7]) and 5.30 to 7.00 in the assay with Z138 cells (setting [8]).
In the case of `O=C(/C=C/C1Cc2cc(-c3ccc(C(=O)N4CCOCC4)cc3)cc(Cl)c2O1)NCc1cccnc1` (stereo not drawn) [Compound 334, (E)-3-(7-Chloro-5-(4-(morpholine-4-carbonyl)phenyl)-2,3-dihydrobenzofuran-2-yl)-N-(pyridin-3-ylmethyl)acrylamide], the values for the negative-log IC50 (pIC50) in the assay on MS751 cells (setting [1]), with 3T3 cells (setting [2]) and with Z138 cells (setting [3]) were 5.30 to 7.00, 4.52 to 5.30 and 5.30 to 7.00, respectively.
Take `CC(=O)c1ccc(-c2cc(Cl)c3c(c2)CC(CNC(=O)/C=C/c2cccnc2N)O3)s1` (stereo not drawn) [Compound 106, (E)-N-((5-(5-acetylthiophen-2-yl)-7-chloro-2,3-dihydrobenzofuran-2-yl)methyl)-3-(2-aminopyridin-3-yl)acrylamide]: the negative logarithm of the IC50 (pIC50) in the assay on MS751 cells (setting [6]), in the assay with 3T3 cells (setting [7]) and in the assay on Z138 cells (setting [8]) was 4.52 to 5.30 in each case.
In the case of `CC(OC(=O)CCCC[C@@H]1SC[C@@H]2NC(=O)N[C@@H]21)c1ccc(-c2cc(Cl)c3c(c2)CC(CNC(=O)/C=C/c2cccnc2)O3)s1` (stereo partly drawn) [Compound 162, 1-(5-(7-chloro-2-(((E)-3-(pyridin-3-yl)acrylamido)methyl)-2,3-dihydrobenzofuran-5-yl)thiophen-2-yl)ethyl 5-((3aS,4S,6aR)-2-oxohexahydro-1H-thieno[3,4-d]imidazol-4-yl)pentanoate], the negative-log IC50 (pIC50) with MS751 cells (setting [6]) was over 7.00; in the assay with 3T3 cells (setting [7]), 5.30 to 7.00; in the assay on Z138 cells (setting [8]), over 7.00.
Turning to `CN1C(=O)c2ccc(-c3cc(Cl)c4c(c3)CC(CNC(=O)/C=C/c3ccc(N)nc3)O4)cc2C1=O` (stereo not drawn) [Compound 343, (E)-3-(6-aminopyridin-3-yl)-N-((7-chloro-5-(2-methyl-1,3-dioxoisoindolin-5-yl)-2,3-dihydrobenzofuran-2-yl)methyl)acrylamide], the values for the negative logarithm of the IC50 (pIC50) with MS751 cells (setting [1]), with 3T3 cells (setting [2]) and with Z138 cells (setting [3]) were 5.30 to 7.00, over 7.00 and under 4.52, respectively.
The like results for `C=C(Cc1cccnc1)C(=O)NCC1Cc2cc(-c3ccc(C(C)=O)s3)cc(Cl)c2O1` (stereo not drawn) [Compound 240, N-((5-(5-acetylthiophen-2-yl)-7-chloro-2,3-dihydrobenzofuran-2-yl)methyl)-2-(pyridin-3-ylmethyl)acrylamide] were, in that order, 4.52 to 5.30, under 4.52 and 4.52 to 5.30.
For `CC(=O)c1ccc(-c2cc(Cl)c3c(c2)CC(CNC(=O)C#Cc2cccnc2)O3)s1` (stereo not drawn) [Compound 251, N-((5-(5-acetylthiophen-2-yl)-7-chloro-2,3-dihydrobenzofuran-2-yl)methyl)-3-(pyridin-3-yl)propiolamide], the pIC50 is 5.30 to 7.00 with MS751 cells (setting [6]), 4.52 to 5.30 in the assay with 3T3 cells (setting [7]) and 5.30 to 7.00 with Z138 cells (setting [8]).
Take `CC(=O)c1ccc(-c2cc(Cl)c3c(c2)CC(CNC(=O)/C=C/c2ccccc2)O3)s1` (stereo not drawn) [Compound 38, N-((5-(5-acetylthiophen-2-yl)-7-chloro-2,3-dihydrobenzofuran-2-yl)methyl)cinnamamide]: the negative logarithm of the IC50 (pIC50) with MS751 cells (setting [6]), in the assay with 3T3 cells (setting [7]) and in the assay with Z138 cells (setting [8]) was under 4.52 in each case.
On to `CC(=O)c1ccc(-c2cc(Cl)c3c(c2)CC(CNC(=O)/C=C/c2cnn(C)c2)O3)s1` (stereo not drawn) [Compound 149, (E)-N-((5-(5-acetylthiophen-2-yl)-7-chloro-2,3-dihydrobenzofuran-2-yl)methyl)-3-(1-methyl-1H-pyrazol-4-yl)acrylamide], for which the pIC50 with MS751 cells (setting [6]), in the assay on 3T3 cells (setting [7]) and with Z138 cells (setting [8]) was under 4.52 each time.
Regarding `CC(=O)c1ccc(-c2cc(Cl)c3c(c2)CC(CNC(=O)/C=C/c2csc(-c4ccc(F)cc4)n2)O3)s1` (stereo not drawn) [Compound 206, (E)-N-((5-(5-acetylthiophen-2-yl)-7-chloro-2,3-dihydrobenzofuran-2-yl)methyl)-3-(2-(4-fluorophenyl)thiazol-4-yl)acrylamide], the pIC50 in the assay on MS751 cells (setting [1]), with 3T3 cells (setting [2]) and in the assay with Z138 cells (setting [3]) was under 4.52 throughout.
On to `Nc1ccc(/C=C/C(=O)NCC2Cc3cc(-c4ccc(C(=O)N5CCOCC5)c(F)c4F)cc(Cl)c3O2)cn1` (stereo not drawn) [Compound 901, (E)-3-(6-aminopyridin-3-yl)-N-((7-chloro-5-(2,3-difluoro-4-(morpholine-4-carbonyl)phenyl)-2,3-dihydrobenzofuran-2-yl)methyl)acrylamide], for which the negative logarithm of the IC50 (pIC50) in the assay with MS751 cells (setting [1]) is over 7.00; with 3T3 cells (setting [2]), 5.30 to 7.00; in the assay on Z138 cells (setting [3]) it was over 7.00.
On to `CC(=O)c1ccc(-c2cc(Cl)c3c(c2)CC(CNC(=O)/C=C/c2coc(C)n2)O3)s1` (stereo not drawn) [Compound 196, (E)-N-((5-(5-acetylthiophen-2-yl)-7-chloro-2,3-dihydrobenzofuran-2-yl)methyl)-3-(2-methyloxazol-4-yl)acrylamide], for which the pIC50 with MS751 cells (setting [1]), with 3T3 cells (setting [2]) and in the assay with Z138 cells (setting [3]) was under 4.52 in each case.
With `Cc1noc(C)c1-c1cc(Cl)c2c(c1)CC(CNC(=O)/C=C/c1cccnc1)O2` (stereo not drawn) [Compound 35, (E)-N-((7-chloro-5-(3,5-dimethylisoxazol-4-yl)-2,3-dihydrobenzofuran-2-yl)methyl)-3-(pyridin-3-yl)acrylamide], the pIC50 in the assay on MS751 cells (setting [6]) is 5.30 to 7.00; in the assay with 3T3 cells (setting [7]), 5.30 to 7.00; in the assay on Z138 cells (setting [8]), over 7.00.
Take `Nc1ccc(CNC(=O)/C=C/C2Cc3cc(-c4ccc(C(=O)N5CC[C@H](F)C5)cc4)cc(Cl)c3O2)cn1` (stereo partly drawn) [Compound 359, (E)-N-((6-Aminopyridin-3-yl)methyl)-3-(7-chloro-5-(4-((S)-3-fluoropyrrolidine-1-carbonyl)phenyl)-2,3-dihydrobenzofuran-2-yl)acrylamide]: the results for the negative logarithm of the IC50 (pIC50) in the assay with MS751 cells (setting [1]), in the assay with 3T3 cells (setting [2]) and in the assay on Z138 cells (setting [3]) were 5.30 to 7.00, 4.52 to 5.30 and under 4.52, respectively.
`CCOC(=O)c1cccc(-c2cc(Cl)c3c(c2)CC(CNC(=O)/C=C/c2cccnc2)O3)c1` (stereo not drawn) [Compound 52, (E)-ethyl 3-(7-chloro-2-((3-(pyridin-3-yl)acrylamido)methyl)-2,3-dihydrobenzofuran-5-yl)benzoate]: the pIC50 with MS751 cells (setting [6]), with 3T3 cells (setting [7]) and in the assay on Z138 cells (setting [8]) was 5.30 to 7.00 throughout.
For the compound `CC(=O)c1ccc(-c2cc(Cl)c3c(c2)CC(CNC(=O)/C=C/c2ccc(N)nc2C)O3)s1` (stereo not drawn) [Compound 118, (E)-N-((5-(5-acetylthiophen-2-yl)-7-chloro-2,3-dihydrobenzofuran-2-yl)methyl)-3-(6-amino-2-methylpyridin-3-yl)acrylamide], the negative logarithm of the IC50 (pIC50) is 4.52 to 5.30 with MS751 cells (setting [6]), 4.52 to 5.30 in the assay on 3T3 cells (setting [7]) and 5.30 to 7.00 with Z138 cells (setting [8]).
Regarding `CC(=O)c1ccc(-c2cc(Cl)c3c(c2)CC(CNC(=O)/C=C/c2ccc(N)nc2)O3)s1` (single isomer, unassigned) [Compound 309, (E)-N-((5-(5-acetylthiophen-2-yl)-7-chloro-2,3-dihydrobenzofuran-2-yl)methyl)-3-(6-aminopyridin-3-yl)acrylamide], the pIC50 with MS751 cells (setting [4]) is 5.30 to 7.00; in the assay with 3T3 cells (setting [5]), 4.52 to 5.30; in the assay with Z138 cells (Z138 cells, approximately 64-72 hours incubation) it was over 7.00.
With `Nc1ccc(CNC(=O)/C=C/C2Cc3cc(-c4ccccc4S(=O)(=O)N4CCOCC4)cc(Cl)c3O2)cn1` (stereo not drawn) [Compound 360, (E)-N-((6-aminopyridin-3-yl)methyl)-3-(7-chloro-5-(2-(morpholinosulfonyl)phenyl)-2,3-dihydrobenzofuran-2-yl)acrylamide], the pIC50 with MS751 cells (setting [1]) is over 7.00; with 3T3 cells (setting [2]), over 7.00; in the assay with Z138 cells (setting [3]) it was 5.30 to 7.00.
With `C/C=C/C(=O)NCC1Cc2cc(-c3ccc(C(C)=O)s3)cc(Cl)c2O1` (stereo not drawn) [Compound 181, (E)-N-((5-(5-acetylthiophen-2-yl)-7-chloro-2,3-dihydrobenzofuran-2-yl)methyl)but-2-enamide], the pIC50 in the assay with MS751 cells (setting [6]), with 3T3 cells (setting [7]) and in the assay with Z138 cells (setting [8]) was under 4.52 each time.

As a reminder, the pIC50 is the IC50 on a negative log10 scale, so that one unit is a factor of ten.
